Assay results published in patent US20130143256A1, “LIQUID-BASED METHOD FOR PRODUCING PLANT EMBRYOS” (ArborGen Inc., priority 2006, published 2013).

Legend:
Type in all cases: cell-based, loblolly pine
[1] = test system: cell line B; assay: Effect of maltose on embryo production in liquid EDM, cell line B; conditions: for Total Avg. Potential Embryos: 30 ml
Description: (§1) Suspension cultures of the following four loblolly pine genotypes, I, B, M, and N, were tested. Each cell line or genotype was initiated from an individual immature seed explant derived from a control pollinated cross of select parent trees of loblolly pine. Five variations in the Liquid EDM listed in Table 1 were tested for development of loblolly pine somatic embryos in liquid. The five treatments were coded 1, 2, 3, 4 and 5 according to the concentration of maltose in the liquid medium, 0, 10, 20, 40 and 60 g/l, respectively. The proliferating embryogenic suspension cultures were poured in the side arm of the flask for 30 minutes to measure the settled cell volume (SCV) as described in example 2. A sub-sample of 12 ml of proliferating liquid suspension was removed for baseline development plating on five plates of MSG gelled embryo development medium for comparative purposes. The SCV measurement was recorded and the proliferating liquid suspensions were distributed among the treatments listed above. Each treatment flask was initiated by placing 15 milliliters of 100% SCV onto a raft placed on a Buchner funnel and the excess liquid was removed through gentle vacuum aspiration. The tissues were then re-suspended into a 250 ml sidearm flask with 30 milliliters of Liquid Embryo Development Media with various maltose concentrations (from 0 to 60 g/l). Once the cultures were re-suspended in liquid EDM the suspensions were poured in the sidearm to settle in the sidearm for thirty minutes to measure the SCV. Each treatment had three replicate flasks. The SCV measurements were recorded and the flasks were placed on the shaker in the dark, 24° C. growth chamber and monitored on a weekly basis for five weeks as described below. the liquid embryo development suspensions were poured into the sidearm and allowed to settle in the sidearm for 30 minutes and the SCV measured and recorded. Each flask was sub-cultured as needed by adding liquid EDM to maintain the suspension density at 50%. This sequence of events was repeated at week two and week three. no media manipulation. The cultures were observed and placed back on the shaker. At week five the embryos were harvested as described in example 6 with the exception of using a 560 μm mesh to wash embryos. Half of the embryos were conditioned as described in example 6 and half were conditioned by the method described in U.S. Application Ser. No. 60/675, 949 simply for comparative purposes.

[2] = test system: cell line M; assay: Effect of maltose on embryo production in liquid EDM, cell line M; conditions: highest (60 g/L) concentration of maltose
Description: (§2) Suspension cultures of the following four loblolly pine genotypes, I, B, M, and N, were tested. Each cell line or genotype was initiated from an individual immature seed explant derived from a control pollinated cross of select parent trees of loblolly pine. Five variations in the Liquid EDM listed in Table 1 were tested for development of loblolly pine somatic embryos in liquid. The five treatments were coded 1, 2, 3, 4 and 5 according to the concentration of maltose in the liquid medium, 0, 10, 20, 40 and 60 g/l, respectively. The proliferating embryogenic suspension cultures were poured in the side arm of the flask for 30 minutes to measure the settled cell volume (SCV) as described in example 2. A sub-sample of 12 ml of proliferating liquid suspension was removed for baseline development plating on five plates of MSG gelled embryo development medium for comparative purposes. The SCV measurement was recorded and the proliferating liquid suspensions were distributed among the treatments listed above. […] The SCV measurements were recorded and the flasks were placed on the shaker in the dark, 24° C. growth chamber and monitored on a weekly basis for five weeks as described below. the liquid embryo development suspensions were poured into the sidearm and allowed to settle in the sidearm for 30 minutes and the SCV measured and recorded. […]

[3] = test system: cell line N; assay: Effect of maltose on embryo production in liquid EDM, cell line N; conditions: maltose 0 to 60 g/l
Description: as §2

[4] = test system: pine somatic embryos, genotype I; assay: Germination of embryos developed at varying maltose concentration, genotype I
Description: (§3) In this particular experiment, after the 3 week conditioning treatment, the embryos on the membrane were placed on modMS germination medium in a lighted culture room at 24° C. After 3 to 5 days the embryos were individually removed from the membrane and transferred directly to the surface of modMS germination medium and cultured for an additional 2 weeks in a lighted growth room at 24° C. Embryo germination, which in this particular instance was estimated by identifying the emergence of a root from the embryo that was at least 1 cm long during this 2 week time period. Twenty-nine percent of the embryos harvested from liquid EDM germinated. Embryos were harvested and prepared for germination using two conditioning treatments: (1) exposure to high relative humidity for 3 weeks at 24° C. […] Embryos were then germinated as previously described in Example 5.

[5] = test system: cell line I; assay: Effect of maltose on embryo production in liquid EDM, cell line I; conditions: for Total Avg. Potential Embryos: 30 ml
Description: as §1

[6] = test system: pine somatic embryos, genotype B; assay: Germination of embryos developed at varying maltose concentration, genotype B
Description: as §3

[7] = cell line B, maltose 10 g/l, week 5
[8] = cell line B, maltose 20 g/l, week 5
[9] = cell line B, maltose 40 g/l, week 5
[10] = cell line B, maltose 60 g/l, week 5
[11] = Cond 1: 3 wk HRH, maltose conc. 1%
[12] = Cond 1: 3 wk HRH, maltose conc. 2%
[13] = Cond 1: 3 wk HRH, maltose conc. 4%
[14] = Cond 1: 3 wk HRH, maltose conc. 6%
[15] = Cond 2: 4 wk cold & 3 wk HRH, maltose conc. 1%
[16] = Cond 2: 4 wk cold & 3 wk HRH, maltose conc. 2%
[17] = Cond 2: 4 wk cold & 3 wk HRH, maltose conc. 4%
[18] = Cond 2: 4 wk cold & 3 wk HRH, maltose conc. 6%
[19] = cell line I, maltose 10 g/l, week 5
[20] = cell line I, maltose 20 g/l, week 5
[21] = cell line I, maltose 40 g/l, week 5
[22] = cell line I, maltose 60 g/l, week 5

How did the “production of fully developed embryos” value ([1]; cell line B, all liquid EDM treatments that contained maltose (10 to 60 g/l)) turn out when `OC[C@H]1O[C@H](O[C@H]2[C@H](O)[C@@H](O)C(O)O[C@@H]2CO)[C@H](O)[C@@H](O)[C@@H]1O` (mixture of isomers) [maltose] was run?
Its value is “Fully developed embryos were produced”.

What about the “Avg. Embryos” value ([1]; cell line B, maltose 10 g/l) of the same compound?
Its value is 189 per g tissue.

What about the “Total Avg. Potential Embryos” value ([1]; cell line B, maltose 10 g/l) of the same compound?
The value was 464 per flask.

What about the “Avg. Embryos” value [1, 7] of the same compound?
Its value is 17 per ml.

What about the “Avg. ± st. dev. Embryos harvested” value [1, 7] of the same compound?
Its value is 232 ± 84 per 15 ml.

And the “Avg. Embryos” value ([1]; cell line B, maltose 20 g/l)?
Its value is 218 per g tissue.

What about the “Total Avg. Potential Embryos” value ([1]; cell line B, maltose 20 g/l) of the same compound?
Its value is 526 per flask.

And the “Avg. Embryos” value [1, 8]?
Its value is 18 per ml.

What about the “Avg. ± st. dev. Embryos harvested” value [1, 8] of the same compound?
Its value is 263 ± 76 per 15 ml.

And the “Avg. Embryos” value ([1]; cell line B, maltose 40 g/l)?
The value was 165 per g tissue.

What about the “Total Avg. Potential Embryos” value ([1]; cell line B, maltose 40 g/l) of the same compound?
The value was 422 per flask.

What about the “Avg. Embryos” value [1, 9] of the same compound?
The value was 15 per ml.

And the “Avg. ± st. dev. Embryos harvested” value [1, 9]?
The value was 211 ± 281 per 15 ml.

What about the “Avg. Embryos” value ([1]; cell line B, maltose 60 g/l) of the same compound?
Its value is 89 per g tissue.

And the “Total Avg. Potential Embryos” value ([1]; cell line B, maltose 60 g/l)?
The value was 240 per flask.

What about the “Avg. Embryos” value [1, 10] of the same compound?
Its value is 8 per ml.

What about the “Avg. ± st. dev. Embryos harvested” value [1, 10] of the same compound?
The value was 120 ± 20 per 15 ml.

What about the “average number of embryos produced per ml of total media used” value ([1]; line B, across maltose levels from 10 to 60 g/l) of the same compound?
The value was 5.6 per ml.

What about the “response to increasing maltose” value [2] of the same compound?
Its value is “producing embryos that had not fully development”.

What about the “response to maltose treatments” value [3] of the same compound?
Its value is “did not respond”.

And the Germination [4, 11]?
The Germination was 37%.

What about the Germination [4, 12] of the same compound?
Its Germination is 40%.

And the Germination [4, 13]?
Its Germination is 33%.

What about the Germination [4, 14] of the same compound?
Its Germination is 19%.

What about the Germination [4, 15] of the same compound?
The Germination was 21%.

And the Germination [4, 16]?
Its Germination is 55%.

What about the Germination [4, 17] of the same compound?
The Germination was 48%.

And the Germination [4, 18]?
Its Germination is 27%.

And the “production of fully developed embryos” value ([5]; cell line I, all liquid EDM treatments that contained maltose (10 to 60 g/l))?
The value was “Fully developed embryos were produced”.

What about the “Avg. Embryos” value ([5]; cell line I, maltose 10 g/l) of the same compound?
Its value is 206 per g tissue.

And the “Total Avg. Potential Embryos” value ([5]; cell line I, maltose 10 g/l)?
Its value is 464 per flask.

And the “Avg. Embryos” value [5, 19]?
Its value is 16 per ml.

And the “Avg. ± st. dev. Embryos harvested” value [5, 19]?
The value was 232 ± 14 per 15 ml.

And the “Avg. Embryos” value ([5]; cell line I, maltose 20 g/l)?
Its value is 216 per g tissue.

What about the “Total Avg. Potential Embryos” value ([5]; cell line I, maltose 20 g/l) of the same compound?
Its value is 486 per flask.

What about the “Avg. Embryos” value [5, 20] of the same compound?
The value was 14 per ml.

What about the “Avg. ± st. dev. Embryos harvested” value [5, 20] of the same compound?
Its value is 243 ± 60 per 15 ml.

What about the “Avg. Embryos” value ([5]; cell line I, maltose 40 g/l) of the same compound?
Its value is 237 per g tissue.

What about the “Total Avg. Potential Embryos” value ([5]; cell line I, maltose 40 g/l) of the same compound?
Its value is 526 per flask.

What about the “Avg. Embryos” value [5, 21] of the same compound?
The value was 16 per ml.

And the “Avg. ± st. dev. Embryos harvested” value [5, 21]?
The value was 263 ± 22 per 15 ml.

What about the “Avg. Embryos” value ([5]; cell line I, maltose 60 g/l) of the same compound?
Its value is 290 per g tissue.

What about the “Total Avg. Potential Embryos” value ([5]; cell line I, maltose 60 g/l) of the same compound?
Its value is 702 per flask.

What about the “Avg. Embryos” value [5, 22] of the same compound?
The value was 20 per ml.

What about the “Avg. ± st. dev. Embryos harvested” value [5, 22] of the same compound?
The value was 351 ± 66 per 15 ml.

What about the “average number of embryos produced per total volume of medium used (discarded and saved)” value ([5]; line I, 40 g/l maltose, 70 ml medium) of the same compound?
The value was 7.5 embryos per total ml media used.

And the “average number of embryos produced per ml of total media used” value ([5]; line I, across maltose levels from 10 to 60 g/l)?
The value was 8.3 per ml.

What about the Germination [6, 11] of the same compound?
The Germination was 9%.

What about the Germination [6, 12] of the same compound?
Its Germination is 8%.

What about the Germination [6, 13] of the same compound?
The Germination was 8%.

And the Germination [6, 14]?
The Germination was 41%.

And the Germination [6, 15]?
Its Germination is 5%.

What about the Germination [6, 16] of the same compound?
Its Germination is 3%.

And the Germination [6, 17]?
Its Germination is 24%.

And the Germination [6, 18]?
The Germination was 29%.
